Measured values taken from ChEMBL document CHEMBL1139533, “Structure-activity relationship studies of a series of antiviral and antibacterial aglycon derivatives of the glycopeptide antibiotics vancomycin, eremomycin, and dechloroeremomycin” (J Med Chem, 2005).
≈ marks a conversion by molar mass, not a printed value.

Legend:
Enterococcus faecalis [1] = experiment: Minimum inhibitory concentration against glycopeptide resistant enterococci 560 Enterococcus faecalis; format: functional
Enterococcus faecalis [2] = experiment: Minimum inhibitory concentration against 559 glycopeptide susceptible enterococci Enterococcus faecalis; format: functional
Staphylococcus aureus [3] = experiment: Minimum inhibitory concentration against glycopeptide intermediate-resistant 3797 Staphylococcus aureus; format: functional
Enterococcus faecium [4] = experiment: Minimum inhibitory concentration against glycopeptide susceptible enterococci 568 Enterococcus faecium; format: functional
MOLT-4 = experiment: Cytostatic activity to the compound against Molt4/C8 cell line; format: functional, cell-based; settings: Homo sapiens
[5] = tested on: Moloney murine sarcoma virus; experiment: Effective concentration against Moloney sarcoma virus; format: functional, organism-based, Viruses
[6] = tested on: Staphylococcus epidermidis; experiment: Minimum inhibitory concentration against 533 Staphylococcus epidermidis; format: functional
C3H/3T3 = experiment: Minimal cytotoxic concentration to cause an alteration in C3H/3T3 cell line morphology; format: functional; settings: Mus musculus
L1210 = experiment: Cytostatic activity against L1210 cell line; format: functional, cell-based; settings: Mus musculus
Staphylococcus aureus [7] = experiment: Minimum inhibitory concentration against glycopeptide intermediate-resistant 3798 Staphylococcus aureus; format: functional
[8] = tested on: Human immunodeficiency virus 1; experiment: Effective concentration against human immunodeficiency virus type 1; format: functional, organism-based
Enterococcus faecium [9] = experiment: Minimum inhibitory concentration against glycopeptide resistant enterococci 569 Enterococcus faecium; format: functional
[10] = tested on: Human immunodeficiency virus 2; experiment: Effective concentration against human immunodeficiency virus type 2; format: functional, organism-based
CCRF-CEM = experiment: Cytostatic activity to the compound against CEM cell line; format: functional, cell-based; settings: Homo sapiens
[11] = tested on: Staphylococcus haemolyticus; experiment: Minimum inhibitory concentration against 602 Staphylococcus haemolyticus; format: functional

| Structure (SMILES) | MIC (Enterococcus faecalis [1]) [µg/mL] | MIC (Enterococcus faecalis [2]) [µg/mL] | MIC (Staphylococcus aureus [3]) [µg/mL] | MIC (Enterococcus faecium [4]) [µg/mL] | IC50 (MOLT-4) [µM] | EC50 [5] [µM] | MIC [6] [µg/mL] | MCC (C3H/3T3) [µg/mL] | IC50 (L1210) [µM] | MIC (Staphylococcus aureus [7]) [µg/mL] | EC50 [8] [µM] | MIC (Enterococcus faecium [9]) [µg/mL] | EC50 [10] [µM] | IC50 (CCRF-CEM) [µM] | MIC [11] [µg/mL] |
| --- | --- | --- | --- | --- | --- | --- | --- | --- | --- | --- | --- | --- | --- | --- | --- |
| NCCCCCCCCCCNC(=O)[C@H]1NC(=O)[C@H]2NC(=O)[C@H](NC(=O)[C@@H]3NC(=O)[C@H](CC(N)=O)NC(=O)[C@H](N)[C@H](O)c4ccc(c(Cl)c4)Oc4cc3cc(c4O)Oc3ccc(cc3)[C@H]2O)c2ccc(O)c(c2)-c2c(O)cc(O)cc21 | > 64 | > 64 | > 32 | > 64 | ≥ 250 | > 4 | > 32 | 20 | ≥ 250 | > 32 | ≥ 25 | > 64 | ≥ 25 | 124 | > 32 |
| CN[C@H](CC(C)C)C(=O)N[C@H]1C(=O)N[C@@H](CC(N)=O)C(=O)N[C@H]2C(=O)N[C@H]3C(=O)N[C@H](C(=O)N[C@H](C(=O)O)c4cc(O)cc(O)c4-c4cc3ccc4O)[C@H](O)c3ccc(cc3)Oc3cc2cc(c3O)Oc2ccc(cc2Cl)[C@H]1O | > 128 | 16 (≈ 14.4 µM) | > 64 | 32 (≈ 28.8 µM) | > 500 | > 100 | 32 (≈ 28.8 µM) | > 100 | > 500 | > 64 | 50 | > 128 | ≥ 250 | > 500 | 16 (≈ 14.4 µM) |
| NC(=O)C[C@@H]1NC(=O)[C@H](N)[C@H](O)c2ccc(cc2)Oc2cc3cc(c2O)Oc2ccc(cc2)[C@@H](O)[C@@H]2NC(=O)[C@H](NC(=O)[C@@H]3NC1=O)c1ccc(O)c(c1)-c1c(O)cc(O)cc1[C@@H](C(=O)O)NC2=O | > 128 | > 128 | > 128 | > 128 |  |  | > 128 |  |  | > 128 |  | > 128 |  |  | > 128 |
| CN[C@H](CC(C)C)C(=O)N[C@H]1C(=O)N[C@@H](CC(N)=O)C(=O)N[C@H]2C(=O)N[C@H]3C(=O)N[C@H](C(=O)N[C@H](C(=O)NCC45CC6CC(CC(C6)C4)C5)c4cc(O)cc(O)c4-c4cc3ccc4O)[C@H](O)c3ccc(cc3)Oc3cc2cc(c3O)Oc2ccc(cc2Cl)[C@H]1O | 8 (≈ 6.37 µM) | 4 (≈ 3.18 µM) | 8 (≈ 6.37 µM) | 8 (≈ 6.37 µM) | 126 | 12 | 8 (≈ 6.37 µM) | 100 | 94 | 8 (≈ 6.37 µM) | 1.6 | 8 (≈ 6.37 µM) | 7 | 148 | 8 (≈ 6.37 µM) |
| NC(=O)C[C@@H]1NC(=O)[C@H](N)[C@H](O)c2ccc(cc2)Oc2cc3cc(c2O)Oc2ccc(cc2)[C@@H](O)[C@@H]2NC(=O)[C@H](NC(=O)[C@@H]3NC1=O)c1ccc(O)c(c1)-c1c(O)cc(O)cc1[C@@H](C(=O)NCC13CC4CC(CC(C4)C1)C3)NC2=O | > 64 | > 64 | > 32 | > 64 | ≥ 250 | 2.6 | > 32 | 100 | > 250 | > 32 | 30 | > 64 | 25.7 | ≥ 250 | > 32 |
| NC(=O)C[C@@H]1NC(=O)[C@H](N)[C@H](O)c2ccc(c(Cl)c2)Oc2cc3cc(c2O)Oc2ccc(cc2)[C@@H](O)[C@@H]2NC(=O)[C@H](NC(=O)[C@@H]3NC1=O)c1ccc(O)c(c1)-c1c(O)cc(O)cc1[C@@H](C(=O)NCC13CC4CC(CC(C4)C1)C3)NC2=O | > 64 | > 64 | > 32 | > 64 | > 250 |  | > 32 |  | 175 | > 32 | 5.5 | > 64 | 3.5 | > 250 | > 32 |
| CN[C@H](CC(C)C)C(=O)N[C@H]1C(=O)N[C@@H](CC(N)=O)C(=O)N[C@H]2C(=O)N[C@H]3C(=O)N[C@H](C(=O)N[C@H](C(=O)NCCCCCCCCCCN)c4cc(O)cc(O)c4-c4cc3ccc4O)[C@H](O)c3ccc(c(Cl)c3)Oc3cc2cc(c3O)Oc2ccc(cc2Cl)[C@H]1O [listing 1 of 2 here] |  |  |  |  | 228 | 5 |  |  | > 250 |  | 2.5 |  | 18.3 | ≥ 250 |  |
| CN[C@H](CC(C)C)C(=O)N[C@H]1C(=O)N[C@@H](CC(N)=O)C(=O)N[C@H]2C(=O)N[C@H]3C(=O)N[C@H](C(=O)N[C@H](C(=O)NCCCCCCCCCCN)c4cc(O)cc(O)c4-c4cc3ccc4O)[C@H](O)c3ccc(c(Cl)c3)Oc3cc2cc(c3O)Oc2ccc(cc2Cl)[C@H]1O [listing 2 of 2 here] | 16 (≈ 12.3 µM) | 0.5 (≈ 0.385 µM) | 2 (≈ 1.54 µM) | 2 (≈ 1.54 µM) |  |  | 2 (≈ 1.54 µM) | ≥ 20 |  | 2 (≈ 1.54 µM) |  | 16 (≈ 12.3 µM) |  |  | 1 (≈ 0.77 µM) |
| CN[C@H](CC(C)C)C(=O)N[C@H]1C(=O)N[C@@H](CC(N)=O)C(=O)N[C@H]2C(=O)N[C@H]3C(=O)N[C@H](C(=O)N[C@H](C(=O)NC4C5CC6CC(C5)CC4C6)c4cc(O)cc(O)c4-c4cc3ccc4O)[C@H](O)c3ccc(cc3)Oc3cc2cc(c3O)Oc2ccc(cc2Cl)[C@H]1O (stereo partly specified) | 32 (≈ 25.7 µM) | 8 (≈ 6.44 µM) | 16 (≈ 12.9 µM) | 16 (≈ 12.9 µM) | > 250 | > 4 | 16 (≈ 12.9 µM) | 20 | > 250 | 16 (≈ 12.9 µM) | 8.5 | 32 (≈ 25.7 µM) | 20 | > 250 | 16 (≈ 12.9 µM) |
| CN[C@H](CC(C)C)C(=O)N[C@H]1C(=O)N[C@@H](CC(N)=O)C(=O)N[C@H]2C(=O)N[C@H]3C(=O)N[C@H](C(=O)N[C@H](C(=O)NC4C5CC6CC(C5)CC4C6)c4cc(O)cc(O)c4-c4cc3ccc4O)[C@H](O)c3ccc(c(Cl)c3)Oc3cc2cc(c3O)Oc2ccc(cc2Cl)[C@H]1O (stereo partly specified) [listing 1 of 2 here] |  |  |  |  | ≥ 250 | 13 |  |  | ≥ 250 |  | 3 |  | 8.5 | > 250 |  |
| CN[C@H](CC(C)C)C(=O)N[C@H]1C(=O)N[C@@H](CC(N)=O)C(=O)N[C@H]2C(=O)N[C@H]3C(=O)N[C@H](C(=O)N[C@H](C(=O)NC4C5CC6CC(C5)CC4C6)c4cc(O)cc(O)c4-c4cc3ccc4O)[C@H](O)c3ccc(c(Cl)c3)Oc3cc2cc(c3O)Oc2ccc(cc2Cl)[C@H]1O (stereo partly specified) [listing 2 of 2 here] | 32 (≈ 25.1 µM) | 2 (≈ 1.57 µM) | 4 (≈ 3.13 µM) | 2 (≈ 1.57 µM) |  |  | 4 (≈ 3.13 µM) | 100 |  | 4 (≈ 3.13 µM) |  | 32 (≈ 25.1 µM) |  |  | 4 (≈ 3.13 µM) |
| CN[C@H](CC(C)C)C(=O)N[C@H]1C(=O)N[C@@H](CC(N)=O)C(=O)N[C@H]2C(=O)N[C@H]3C(=O)N[C@H](C(=O)N[C@H](C(=O)NCCCCCCCCCCN)c4cc(O)cc(O)c4-c4cc3ccc4O)[C@H](O)c3ccc(cc3)Oc3cc2cc(c3O)Oc2ccc(cc2Cl)[C@H]1O | 32 (≈ 25.3 µM) | 8 (≈ 6.33 µM) | 8 (≈ 6.33 µM) | 8 (≈ 6.33 µM) | 196 | > 4 | 8 (≈ 6.33 µM) | 20 | ≥ 250 | 8 (≈ 6.33 µM) | 8.5 | 32 (≈ 25.3 µM) | 25 | 202 | 8 (≈ 6.33 µM) |
| CN[C@H](CC(C)C)C(=O)N[C@H]1C(=O)N[C@@H](CC(N)=O)C(=O)N[C@H]2C(=O)N[C@H]3C(=O)N[C@H](C(=O)N[C@H](C(=O)O)c4cc(O)cc(O)c4-c4cc3ccc4O)[C@H](O)c3ccc(c(Cl)c3)Oc3cc2cc(c3O)Oc2ccc(cc2Cl)[C@H]1O [listing 1 of 2 here] |  |  |  |  | > 500 | 100 |  |  | > 500 |  | 65 |  | ≥ 250 | > 500 |  |
| CN[C@H](CC(C)C)C(=O)N[C@H]1C(=O)N[C@@H](CC(N)=O)C(=O)N[C@H]2C(=O)N[C@H]3C(=O)N[C@H](C(=O)N[C@H](C(=O)O)c4cc(O)cc(O)c4-c4cc3ccc4O)[C@H](O)c3ccc(c(Cl)c3)Oc3cc2cc(c3O)Oc2ccc(cc2Cl)[C@H]1O [listing 2 of 2 here] | > 64 | 2 (≈ 1.75 µM) | 4 (≈ 3.5 µM) | 4 (≈ 3.5 µM) |  |  | 4 (≈ 3.5 µM) | > 100 |  | 4 (≈ 3.5 µM) |  | > 64 |  |  | 8 (≈ 6.99 µM) |
| NCCCCCCCCCCNC(=O)[C@H]1NC(=O)[C@H]2NC(=O)[C@H](NC(=O)[C@@H]3NC(=O)[C@H](CC(N)=O)NC(=O)[C@H](N)[C@H](O)c4ccc(cc4)Oc4cc3cc(c4O)Oc3ccc(cc3)[C@H]2O)c2ccc(O)c(c2)-c2c(O)cc(O)cc21 | > 64 | > 64 | > 32 | > 64 | 144 | 7.8 | > 32 | ≥ 20 | ≥ 250 | > 32 | > 25 | > 64 | > 25 | 106 | > 32 |
| CN[C@H](CC(C)C)C(=O)N[C@H]1C(=O)N[C@@H](CC(N)=O)C(=O)N[C@H]2C(=O)N[C@H]3C(=O)N[C@H](C(=O)N[C@H](C(=O)NCC45CC6CC(CC(C6)C4)C5)c4cc(O)cc(O)c4-c4cc3ccc4O)[C@H](O)c3ccc(c(Cl)c3)Oc3cc2cc(c3O)Oc2ccc(cc2Cl)[C@H]1O [listing 1 of 2 here] |  |  |  |  | 72 | 10 |  |  | ≥ 250 |  | 3 |  | 9.5 | ≥ 250 |  |
| CN[C@H](CC(C)C)C(=O)N[C@H]1C(=O)N[C@@H](CC(N)=O)C(=O)N[C@H]2C(=O)N[C@H]3C(=O)N[C@H](C(=O)N[C@H](C(=O)NCC45CC6CC(CC(C6)C4)C5)c4cc(O)cc(O)c4-c4cc3ccc4O)[C@H](O)c3ccc(c(Cl)c3)Oc3cc2cc(c3O)Oc2ccc(cc2Cl)[C@H]1O [listing 2 of 2 here] | 16 (≈ 12.4 µM) | 1 (≈ 0.774 µM) | 2 (≈ 1.55 µM) | 2 (≈ 1.55 µM) |  |  | 2 (≈ 1.55 µM) | ≥ 100 |  | 2 (≈ 1.55 µM) |  | 16 (≈ 12.4 µM) |  |  | 2 (≈ 1.55 µM) |
